The values below come from ChEMBL document CHEMBL1128700 (J Med Chem, 1995).

Test [1] deals with Human immunodeficiency virus type 1 reverse transcriptase (Human immunodeficiency virus 1), Q72547 [Y181C]. Description: Percent inhibitory activity against Y181C HIV type I reverse transcriptase at a concentration of 1 uM.
Test [2] addresses Human immunodeficiency virus type 1 reverse transcriptase (Human immunodeficiency virus 1) (UniProt Q72547). In words: Percent inhibitory activity against wild type (WT) HIV type I reverse transcriptase at a concentration of 1 uM.
Test [3] concerns the target Human immunodeficiency virus type 1 reverse transcriptase (Human immunodeficiency virus 1, UniProt Q72547). In words: Compound was evaluated for inhibition of WT HIV type I reverse transcriptase.
Test [4] concerns the target Human immunodeficiency virus type 1 reverse transcriptase (Human immunodeficiency virus 1, UniProt Q72547, Y181C). Description: Compound was evaluated for inhibition of Y181C HIV type I reverse transcriptase.

Usually inhibition stands for how much of the control response was suppressed. Lower therefore signals a weak effect. In the case of `CCN1c2ncccc2C(=O)Nc2c(Cc3ccccc3)cc(OC)nc21`, the inhibition in test [1] and in test [2] was 0% each time.

A word on the IC50: it is the midpoint of a concentration-inhibition curve. Read a high IC50 as weaker potency. As for `CCN1c2ncccc2C(=O)Nc2c(COCc3ccccc3)cc(=O)[nH]c21`, the IC50 in test [3] was 110 nM; in test [4] it was 1070 nM.

On to `O=C1Nc2c(CSc3ccccc3)ccnc2N(C2CC2)c2ncccc21`, for which the inhibition in test [1] was determined as 14%; in test [2] it was 44%. Moreover, in test [3], the midpoint of inhibition, the IC50, lay at 1030 nM.

As to `O=C(O)CCc1ccnc2c1NC(=O)c1cccnc1N2C1CC1`, the inhibition is 8% in test [1] and 2% in test [2].

For `O=C1Nc2c(Cc3ccccc3O)ccnc2N(C2CC2)c2ncccc21`, the inhibition in test [1] was 50%; in test [2], 75%. For the same compound, the 50% inhibitory concentration (IC50) in test [3] was 190 nM; in test [4], 1120 nM.

In the case of `O=C1Nc2c(Cn3cccn3)ccnc2N(C2CC2)c2ncccc21`, the inhibition in test [1] turned out to be 5%; in test [2], 36%. In test [3], the IC50 was found to be 2200 nM.

As to `O=C1Nc2c(CO)ccnc2N(C2CC2)c2ncccc21`, the values for the inhibition in test [1] and in test [2] were 4% and 34%, respectively.

Consider `Nc1ccc(OCc2ccnc3c2NC(=O)c2cccnc2N3C2CC2)cc1`, for which the inhibition was 49% in test [1] and 91% in test [2]. The values for the IC50 in test [3] and in test [4] were 100 nM and 1010 nM, respectively.

For the compound `Cc1cccc(OCc2ccnc3c2NC(=O)c2cccnc2N3C2CC2)c1`, the inhibition in test [1] was 9%; in test [2] it was 38%. In test [3], this compound registered a half-maximal inhibitory concentration (IC50) of 2430 nM.

With `O=C1Nc2c(COCCc3ccccc3)ccnc2N(C2CC2)c2ncccc21`, the inhibition in test [1] is 28%; in test [2] it was 55%. In test [3], half-maximal inhibition (IC50) was put at 420 nM.

As for `CCN1c2ncccc2C(=O)Nc2c(COCc3ccccc3)cc(-c3cccc(OC)c3)nc21`, the results for the inhibition in test [1] and in test [2] were 12% and 0%, respectively.

`CCN1c2ncccc2C(=O)Nc2c(CO)cc(O)nc21`: the inhibition in test [1] was determined as 25%; in test [2], 51%. The same compound came in with a half-maximal inhibitory concentration (IC50) in test [3] of 420 nM.

As for `CCN1c2ncccc2C(=O)Nc2c(Cc3ccccc3)cc(O)nc21`, the inhibition in test [1] amounted to 42%; in test [2], 67%.

Take `O=C1Nc2c(COCCCc3ccccc3)ccnc2N(C2CC2)c2ncccc21`: the inhibition was determined as 20% in test [1] and 29% in test [2].

As for `CCOC(=O)/C=C/c1ccnc2c1NC(=O)c1cccnc1N2C1CC1`, the inhibition in test [1] worked out at 22%; in test [2], 27%.

On to `O=C1Nc2c(COc3ccccc3)ccnc2N(C2CC2)c2ncccc21`, for which the inhibition came out at 26% in test [1] and 78% in test [2]. For the same compound, the values for the IC50 in test [3] and in test [4] were 120 nM and 2580 nM, respectively.

As for `C=Cc1ccnc2c1NC(=O)c1cccnc1N2C1CC1`, the inhibition in test [1] came out at 16%; in test [2], 83%. Moreover, the IC50 in test [3] is 110 nM.

`CCN1c2ncccc2C(=O)Nc2c(C=O)cc(OC)nc21`: the inhibition in test [1] is 38%; in test [2] it was 78%. The compound further had a half-inhibitory concentration (IC50) in test [3] of 240 nM.

With `O=C1Nc2c(CC3=CCNC3)ccnc2N(C2CC2)c2ncccc21`, the inhibition in test [1] was 26%; in test [2], 54%. The compound further displayed an IC50 in test [3] of 640 nM.

Turning to `O=C1Nc2c(COc3ccccc3O)ccnc2N(C2CC2)c2ncccc21`, the inhibition in test [1] came to 42%; in test [2] it was 59%. In test [3], this compound yielded a 50% inhibitory concentration (IC50) of 460 nM.

For the compound `O=C1Nc2c(COc3ccccc3Cl)ccnc2N(C2CC2)c2ncccc21`, the inhibition in test [1] came out at 20%; in test [2], 30%. The same compound gave an IC50 in test [3] of 3050 nM.

`O=C1Nc2c(CN3CCCC3)ccnc2N(C2CC2)c2ncccc21`: the inhibition is 16% in test [1] and 51% in test [2]. This compound displayed an IC50 in test [3] of 700 nM.

As for `C=CCOCc1ccnc2c1NC(=O)c1cccnc1N2C1CC1`, the inhibition in test [1] came to 29%; in test [2], 35%. In addition, in test [3], the IC50 turned out to be 1410 nM.

Consider `CCN1c2ncccc2C(=O)Nc2c(C3OCCCO3)cc(OC)nc21`, for which the inhibition in test [1] is 22%; in test [2], 52%. The concentration for half-maximal inhibition (IC50) in test [3] worked out at 800 nM.

As for `Cc1ccccc1OCc1ccnc2c1NC(=O)c1cccnc1N2C1CC1`, the inhibition in test [1] turned out to be 28%; in test [2] it was 65%. The compound further registered an IC50 in test [3] of 290 nM.

Consider `COc1ccc(O)c(Cc2ccnc3c2NC(=O)c2cccnc2N3C2CC2)c1`, for which the inhibition in test [1] is 47%; in test [2], 42%. For the same compound, it took 850 nM to reach half-maximal inhibition in test [3] (IC50).

Take `O=C1Nc2c(CCc3ccccc3)ccnc2N(C2CC2)c2ncccc21`: the inhibition in test [1] turned out to be 38%; in test [2], 36%.

In the case of `CCN1c2ncccc2C(=O)Nc2c(C=O)cc(-c3cccc(OC)c3)nc21`, the results for the inhibition in test [1] and in test [2] were 63% and 71%, respectively. Besides, the IC50 in test [3] came out at 330 nM; in test [4], 420 nM.

As to `O=C1Nc2c(CNc3ccccc3)ccnc2N(C2CC2)c2ncccc21`, the inhibition in test [1] came to 41%; in test [2] it was 87%. For the same compound, the IC50 was determined as 60 nM in test [3] and 1370 nM in test [4].

Take `O=C(O)/C=C/c1ccnc2c1NC(=O)c1cccnc1N2C1CC1`: the inhibition in test [1] and in test [2] was 0% in each case.

On to `CCN1c2ncccc2C(=O)Nc2c(CO)cc(OC)nc21`, for which the inhibition in test [1] turned out to be 24%; in test [2], 89%. Further, the IC50 in test [3] was 50 nM.

Take `CCN1c2ncccc2C(=O)Nc2c(C3OCCCO3)cc(O)nc21`: the inhibition in test [1] and in test [2] was 0% each time.

For `CCN1c2ncccc2C(=O)Nc2c(COCc3ccccc3)cc(O)nc21`, the inhibition in test [1] is 38%; in test [2], 83%.

As to `CCN1c2ncccc2C(=O)Nc2c(COc3ccccc3)cc(OC)nc21`, the inhibition came out at 17% in test [1] and 44% in test [2]. In test [3], this compound showed an IC50 of 4000 nM.

As to `CCN1c2ncccc2C(=O)Nc2c(Cc3ccccc3)cc(-c3cccc(OC)c3)nc21`, the inhibition in test [1] stood at 15%; in test [2] it was 20%.

As to `CCN1c2ncccc2C(=O)Nc2c(Cc3ccccc3)cc(=O)[nH]c21`, the results for the IC50 in test [3] and in test [4] were 340 nM and 1300 nM, respectively.

Consider `O=C1Nc2c(COc3ccc([N+](=O)[O-])cc3)ccnc2N(C2CC2)c2ncccc21`, for which the inhibition was found to be 12% in test [1] and 43% in test [2]. Also, the half-maximal inhibitory concentration (IC50) in test [3] was 1130 nM.

For `Cc1ccc(Cc2ccnc3c2NC(=O)c2cccnc2N3C2CC2)c(O)c1`, the figures for the inhibition in test [1] and in test [2] were 29% and 76%, respectively. This compound also gave an IC50 in test [3] of 200 nM.

Turning to `CCN1c2ncccc2C(=O)Nc2c(C=O)cc(O)nc21`, the inhibition in test [1] was 6%; in test [2], 36%.

Take `CCN1c2ncccc2C(=O)Nc2c(COc3ccccc3)cc(-c3cccc(OC)c3)nc21`: the inhibition in test [1] amounted to 37%; in test [2] it was 69%. Also, in test [3], the half-inhibitory concentration (IC50) was 490 nM.

As for `N#Cc1ccc(OCc2ccnc3c2NC(=O)c2cccnc2N3C2CC2)cc1`, the inhibition in test [1] was 11%; in test [2], 57%. In addition, in test [3], the 50% inhibitory concentration (IC50) worked out at 410 nM.

For the compound `CCN1c2ncccc2C(=O)Nc2c(COCc3ccccc3)cc(OC)nc21`, the results for the inhibition in test [1] and in test [2] were 26% and 42%, respectively. The compound also came in with an IC50 in test [3] of 920 nM.

Turning to `CCN1c2ncccc2C(=O)Nc2c(COc3ccccc3)cc(O)nc21`, the inhibition came to 20% in test [1] and 33% in test [2].

In the case of `O=C1Nc2c(Cc3ccccc3)ccnc2N(C2CC2)c2ncccc21`, the inhibition in test [1] worked out at 8%; in test [2], 73%. In test [3], this compound displayed a 50% inhibitory concentration (IC50) of 140 nM.

Take `CCOCc1ccnc2c1NC(=O)c1cccnc1N2C1CC1`: the inhibition in test [1] turned out to be 29%; in test [2], 41%. In test [3], inhibition was half-maximal at 1300 nM (IC50).

On to `CCN1c2ncccc2C(=O)Nc2c(C3OCCCO3)cc(-c3cccc(OC)c3)nc21`, for which the values for the inhibition in test [1] and in test [2] were 7% and 40%, respectively.

Turning to `O=C1Nc2c(CSCc3ccccc3)ccnc2N(C2CC2)c2ncccc21`, the inhibition came to 28% in test [1] and 33% in test [2].

In the case of `O=C1Nc2c(CN3CCCCC3)ccnc2N(C2CC2)c2ncccc21`, the inhibition turned out to be 20% in test [1] and 29% in test [2].

As for `CCNc1ccc(OCc2ccnc3c2NC(=O)c2cccnc2N3C2CC2)cc1`, the inhibition in test [1] came out at 58%; in test [2], 88%. Further, the IC50 in test [3] amounted to 80 nM; in test [4] it was 430 nM.

For the compound `CCN1c2ncccc2C(=O)Nc2c(CO)cc(-c3cccc(OC)c3)nc21`, the figures for the inhibition in test [1] and in test [2] were 0% and 16%, respectively.

As for `O=C1Nc2c(Cn3ccnc3)ccnc2N(C2CC2)c2ncccc21`, the inhibition in test [1] amounted to 20%; in test [2] it was 13%.

As for `O=C1Nc2c(COCc3ccccc3)ccnc2N(C2CC2)c2ncccc21`, the figures for the inhibition in test [1] and in test [2] were 37% and 67%, respectively. This compound registered an IC50 in test [3] of 270 nM.

Consider `Cc1ccc(OCc2ccnc3c2NC(=O)c2cccnc2N3C2CC2)cc1`, for which the inhibition is 33% in test [1] and 55% in test [2]. Further, half-maximal inhibition in test [3] (IC50) was put at 580 nM.

As for `O=C1Nc2c(/C=C/c3ccccc3)ccnc2N(C2CC2)c2ncccc21`, the inhibition in test [1] is 25%; in test [2], 23%.

Take `CCOC(=O)CCc1ccnc2c1NC(=O)c1cccnc1N2C1CC1`: the inhibition in test [1] stood at 11%; in test [2], 13%.

Regarding `COc1ccc(OCc2ccnc3c2NC(=O)c2cccnc2N3C2CC2)cc1`, the values for the inhibition in test [1] and in test [2] were 41% and 47%, respectively. This compound gave a concentration for half-maximal inhibition (IC50) in test [3] of 1040 nM.

Turning to `O=C1Nc2c(CN3CCOCC3)ccnc2N(C2CC2)c2ncccc21`, the figures for the inhibition in test [1] and in test [2] were 21% and 50%, respectively. In test [3], it took 1030 nM to reach half-maximal inhibition (IC50).
